Molecules are shown by their SMILES.

One assay has as its system D. immitis microfilariae. Kind of assay: Dog heart worm microfilariae motility assay. Format: cell-based. The conditions noted are these: Dirofilaria immitis, read-out: EC50 (motility inhibition).
A further assay deals with T. colubriformis. Kind of assay: Gastro intestinal nematodes, infected jird model (T. colubriformis). The conditions noted are these: Jirds (Meriones unguiculatus), oral, Day 6 after infection, dose between 1×3 mg/kg and 1×32 mg/kg, worms recovered from small intestine three days after treatment.
Assay [1] relates to H. contortus (H.c.) larvae. Kind of assay: Ruminant gastrointestinal (H. contortus) larval motility assay. The note with it: Haemonchus contortus, read-out: EC50 (motility inhibition).
Protocol: H.c. eggs isolated from lamb fecal matter are allowed to hatch overnight. Test compounds are diluted in DMSO and added to a 96-well plate containing appropriate media. H.c. larvae are added to each well and plates are incubated for the desired time(s). Motility is assessed using an LCD camera imaging system. Percent motility inhibition values are generated relative to the average of the DMSO-only wells.
Another assay has as its system L. sigmodontis. Briefly: L.s. model in mice. The conditions noted are these: oral gavage, dose between 1×3 mg/kg and 5×32 mg/kg, necropsy 5 weeks after infection.

Protocol for L. sigmodontis: Model Mice, injected subcutaneously with infective L. sigmodontis larvae, were subsequently treated with the test article formulated in eg DMSO/PEG 2/1, by oral gavage at a dose in a range between 1×3 mg/kg up to 5×32 mg/kg (one dose per day for 5 consecutive days). At necropsy 5 weeks after infection, efficacy is calculated by counting developed larvae vs. untreated animals using Abbot's formula.
Protocol for T. colubriformis: Jirds (Meriones unguiculatus), are artificially infected by gavage with third instar larvae each of T. colubriformis and H. contortus. Then treated orally with the test compound formulated in eg DMSO/PEG 2/1, on Day 6 after infection at a dose in a range between 1×3 mg/kg up to 1×32 mg/kg. Three days after treatment, gerbils are euthanized and dissected to recover H. contortus from stomach and T. colubriformis from the small intestine. Efficacy is expressed as a % reduction in worm numbers in comparison with a placebo treated group, using the Abbot's formula.

Broadly, the EC50 is the concentration giving half of the maximal effect. `CN(C)c1c(NC(=O)[C@@H]2CCOc3ccccc32)cnc2c(-c3cc(Cl)cc(Cl)c3)cccc12` [Example 1.1, (4R)—N-[8-(3,5-dichlorophenyl)-4-(dimethylamino)-3-quinolyl]chromane-4-carboxamide]: the EC50 was < 0.1 µg/mL in the assay on D. immitis microfilariae and < 1 µg/mL in assay [1]. Besides, the “Efficacy against Tc (% reduction in worm numbers vs placebo, Abbot's formula)” value in the assay with T. colubriformis was > 80%.
With `CN(C)c1c(NC(=O)[C@@H]2CCCc3ccccc32)cnc2c(-c3cc(Cl)cc(Cl)c3)cccc12` [Example 1.3, (1R)-N-[8-(3,5-dichlorophenyl)-4-(dimethylamino)-3-quinolyl]tetralin-1-carboxamide], the concentration giving a half-maximal response (EC50) in the assay on D. immitis microfilariae is < 0.1 µg/mL.
On to `CN(C)c1c(NC(=O)[C@H]2CCCc3ccccc32)cnc2c(-c3cc(Cl)cc(Cl)c3)cccc12` [Example 1.4, (1S)-N-[8-(3,5-dichlorophenyl)-4-(dimethylamino)-3-quinolyl]tetralin-1-carboxamide], for which the “Efficacy against Ls (developed larvae vs. untreated animals, Abbot's formula)” value in the assay with L. sigmodontis is > 80%. Further, the values for the EC50 (in the assay on D. immitis microfilariae; in assay [1]) were < 0.1 µg/mL and < 1 µg/mL, respectively.
As to `O=C(Nc1cnc2c(-c3cc(Cl)cc(Cl)c3)cccc2c1C1CC1)[C@H]1CCOc2ccccc21` [Example 1.6, (4S)-N-[4-cyclopropyl-8-(3,5-dichlorophenyl)-3-quinolyl]chromane-4-carboxamide], the EC50 with D. immitis microfilariae is < 0.1 µg/mL; in assay [1] it was < 1 µg/mL.
`CON(C)c1c(NC(=O)[C@@H]2CCOc3ccccc32)cnc2c(-c3cc(Cl)cc(Cl)c3)cccc12` [Example 1.7, (4R)-N-[8-(3,5-dichlorophenyl)-4-[methoxy(methyl)amino]-3-quinolyl]chromane-4-carboxamide]: the EC50 in the assay on D. immitis microfilariae was < 0.1 µg/mL.
As to `CN(C)c1c(NC(=O)[C@H]2CCOc3ccccc32)cnc2c(-c3cccc(Cl)c3Cl)cccc12` [Example 1.9, (4S)-N-[8-(2,3-dichlorophenyl)-4-(dimethylamino)-3-quinolyl]chromane-4-carboxamide], the EC50 was < 0.1 µg/mL in the assay with D. immitis microfilariae and < 1 µg/mL in assay [1].
For `CN(C)c1c(NC(=O)[C@H]2CCOc3ccccc32)cnc2c(-c3cc(Cl)cc(C(F)(F)F)c3)cccc12` [Example 1.11, (4S)-N-[8-[3-chloro-5-(trifluoromethyl)phenyl]-4-(dimethylamino)-3-quinolyl]chromane-4-carboxamide], the EC50 was < 0.1 µg/mL in the assay with D. immitis microfilariae and < 1 µg/mL in assay [1].
On to `O=C(Nc1cnc2c(-c3cc(Cl)cc(Cl)c3)cccc2c1N1CCOCC1)[C@H]1CCOc2ccccc21` [Example 1.12, (4S)-N-[8-(3,5-dichlorophenyl)-4-morpholino-3-quinolyl]chromane-4-carboxamide], for which the results for the EC50 (in the assay with D. immitis microfilariae; in assay [1]) were < 0.1 µg/mL and < 1 µg/mL, respectively.
Turning to `CN(C)c1c(NC(=O)[C@@H]2CCOc3ccccc32)cnc2c(-c3cc(Cl)cc(Cl)c3)nccc12` [Example 4.2, (4R)-N-[8-(3,5-dichloro-dichlorophenyl)-4-(dimethylamino)-1,7-naphthyridin-3-yl]chromane-4-carboxamide], the EC50 in assay [1] was < 1 µg/mL.
Turning to `CN(C)c1c(NC(=O)[C@@H]2CCOc3ccccc32)cnc2c(-c3cc(Cl)cc(Cl)c3)ccnc12` [Example 6.1, (4R)—N-[8-(3,5-dichlorophenyl)-4-(dimethylamino)-1,5-naphthyridin-3-yl]chromane-4-carboxamide], the EC50 in assay [1] is < 1 µg/mL.
For `CN(C)c1c(NC(=O)[C@H]2CCOc3ccccc32)cnc2c(-c3cc(Cl)cc(Cl)c3)ccnc12` [Example 6.2, (4S)-N-[8-(3,5-dichlorophenyl)-4-(dimethylamino)-1,5-naphthyridin-3-yl]chromane-4-carboxamide], the results for the concentration for a half-maximal effect (EC50) (in the assay with D. immitis microfilariae; in assay [1]) were < 0.1 µg/mL and < 1 µg/mL, respectively.
As for `O=C(Nc1cnc2c(-c3cc(Cl)cc(Cl)c3)ccnc2c1N1CCOCC1)[C@H]1CCOc2ccccc21` [Example 6.3, (4S)-N-[8-(3,5-dichlorophenyl)-4-morpholino-1,5-naphthyridin-3-yl]chromane-4-carboxamide], the EC50 with D. immitis microfilariae is < 0.1 µg/mL; in assay [1], < 1 µg/mL.
Take `CN(C)c1c(NC(=O)N[C@H]2CCOc3ccccc32)cnc2c(-c3cc(Cl)cc(Cl)c3)cccc12` [Example 7.1, 1-[(4S)-Chroman-4-yl]-3-[8-(3,5-dichlorophenyl)-4-(dimethylamino)-3-quinolyl]urea]: in assay [1], the EC50 was < 1 µg/mL.

For the origin of these results see US20260193257A1, “BICYCLIC DERIVATIVES” (Elanco Tiergesundheit AG, priority 2018, published 2026).
